Source: US10385069B2, “Imidazo[2,1-B]thiazole and 5,6-dihydroimidazo[2,1-B]thiazole derivatives useful as S100-inhibitors” (Active Biotech AB, priority 2015, dated 2019)

These compounds were tested against T1, interaction between biotinylated human S100A9 and human RAGE-Fc (Homo sapiens, UniProt P06702) (assay: AlphaScreen inhibition assay, biot-hS100A9:hRAGE-Fc). Conditions: biot-hS100A9 pre-incubated with compound 1 h, assay buffer with CaCl2 and ZnCl2.
T1 construct: made in house; host or cells: E. coli
T1 sequence (P06702 1-114): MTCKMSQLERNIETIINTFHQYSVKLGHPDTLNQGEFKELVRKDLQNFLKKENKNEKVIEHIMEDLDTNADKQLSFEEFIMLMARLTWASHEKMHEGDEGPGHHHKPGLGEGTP
Assay type: binding
Text: Inhibition Assay, Biot-hS100A9:hRAGE-Fc
The AlphaScreen (Amplified Luminescent Proximity Homogeneous Assay) contains two types of beads, Alpha Donor beads and Acceptor beads (PerkinElmer). Upon laser excitation at 680 nm a photosensitizer in the Donor bead converts ambient oxygen to a more excited singlet state. The singlet oxygen molecule diffuses (maximum 200 nm) to react with a thioxene derivative in the Acceptor bead and generates a chemiluminescence reaction. Fluorophores in the Acceptor bead subsequently emit light at 520-620 nm which can be detected in the EnVision® Multilabel plate Reader (PerkinElmer). The beads are light sensitive and all work with the beads is performed under subdued light conditions or using green filters on light sources (Roscolux Chroma Green #389, Rosco).
In the AlphaScreen Inhibition Assay described here, protein A (Staphylococcus aureus) conjugated Acceptor beads are used together with streptavidin coated Donor beads (Perkin Elmer 6760617M). The Acceptor beads are pre-incubated with Fc-tagged recombinant human RAGE (rhRAGE-Fc) allowing binding of the rhRAGE-Fc to protein A on the beads. Biotinylated human S100A9 (biot-hS100A9) is pre-incubated with the low molecular test compounds. The pre-mixes are then added to the wells of a micro-plate and incubated allowing interaction between biot-hS100A9 and rhRAGE-Fc. Subsequent addition of streptavidin coated Donor beads causes binding of the streptavidin to the biotinylated hS100A9. After an additional incubation the signal is measured.
Without inhibitory compounds, the interaction of biot-hS100A9 to rhRAGE-Fc will bring the Acceptor and Donor beads in close proximity thus generating a high signal. With an inhibitor present the complex will not form resulting in a decreased signal. The assay is illustrated in FIG. 1.
Chemicals and Reagents. • AlphaScreen® General IgG (Protein A) Detection Kit, (PerkinElmer 6760617M) • HBS-P buffer (GE Healthcare, BR-1003-68) • HBS-N buffer (GE Healthcare, BR-1003-69) • CaCl2 in HBS-P • ZnCl2 in Milli-Q water • DMSO • Biotinylated hS100A9, (biotinylated via cystein by EZ-link Iodoacetyl-PEG2-Biotin reagent (Pierce no. 21334), in HBS-N • rhRAGE-Fc (R&D Systems, 1145-RG-50), in HBS-P
The AlphaScreen assay method is used for screening of the inhibitory effect of different compound samples at fixed concentrations or for IC50 determination by varying the compound concentrations. Samples of test compounds and references are prepared from solutions in DMSO. Relevant reference inhibitors and DMSO are used as controls for defined inhibition and non-inhibition, respectively in the assay. The percent inhibition in assay for test compounds and references are calculated by comparing their obtained assay signals with the signal values for the control with only DMSO (no compound).
Assay concentration of biotinylated hS100A9 and rhRAGE-Fc are batch dependent, and are determined and defined by separate cross-titration experiments using this AlphaScreen inhibition method to verify the optimal setup regarding signal strength and achievement of a defined inhibition with relevant reference compounds. The Final assay concentrations of Acceptor and Donor beads are 20 μg/mL.
Assay buffer is prepared by adding CaCl2 and ZnCl2 to HBS-P and is used freshly prepared in the experiment.
Biotin-hS100A9 solution for the experiment is prepared by dilution of appropriate amount of stock solution biot-hS100A9 in assay buffer (with CaCl2 and ZnCl2) and incubation in room temperature for 30 minutes.
rhRAGE-Fc solution for the experiment is prepared by dilution appropriate amount of rhRAGE-Fc stock in assay buffer.
Protein A Acceptor beads are diluted in assay buffer and are added to an equal volume of the prepared diluted rhRAGE-Fc solution. The beads are light sensitive. The vial is covered with aluminum foil and incubated at room temperature in the dark until biot-hS100A9+compound incubation is finished (see below). […]
With `O=C(O)c1nc2sc3c(Cl)c(F)ccc3n2c1C1CNC1` [Example 281, 3-(Azetidin-3-yl)-9-chloro-10-fluoro-7-thia-2,5-diazatricyclo[6.4.0.0^2,6]dodeca-1(8),3,5,9,11-pentaene-4-carboxylic acid] the IC50 was 1.8 µM. For `O=C(O)C1CN2C(=N1)Sc1c2ccc(Br)c1Cl` (stereo not shown) [Example 240, 10-Bromo-9-chloro-7-thia-2,5-diazatricyclo[6.4.0.0^2,6]dodeca-1(8),5,9,11-tetraene-4-carboxylic acid], the IC50 was 0.43 µM. Compound `CC(C)(C)Nc1c(C(=O)O)nc2sc3cc(OC(F)(F)F)ccc3n12` [Example 18, 3-(tert-Butylamino)-10-(trifluoromethoxy)-7-thia-2,5-diazatricyclo[6.4.0.0^2,6]dodeca-1(8),3,5,9,11-pentaene-4-carboxylic acid] has an IC50 of 1.03 µM. With `O=C(O)c1cn2c(n1)sc1cccc(Cl)c12` [Example 7, 12-Chloro-7-thia-2,5-diazatricyclo[6.4.0.0^2,6]dodeca-1(8),3,5,9,11-pentaene-4-carboxylic acid] the IC50 was 2.16 µM. Compound `COc1ccc(-c2c(C(=O)O)nc3sc4c(n23)CCC(C(C)(C)C)C4)cc1` (stereo not shown) [Example 190, 10-tert-Butyl-3-(4-methoxyphenyl)-7-thia-2,5-diazatricyclo[6.4.0.0^2,6]dodeca-1(8),3,5-triene-4-carboxylic acid] has an IC50 of 1.68 µM. `COc1c(Cl)ccc2c1sc1nc(C(=O)O)cn12` [Example 217, 10-Chloro-9-methoxy-7-thia-2,5-diazatricyclo[6.4.0.0^2,6]dodeca-1(8),3,5,9,11-pentaene-4-carboxylic acid] gave an IC50 of 1.09 µM. `CC(C)(C)C1CCc2c(sc3nc(C(=O)O)c(CO)n23)C1` (stereo not shown) [Example 256, 10-tert-Butyl-3-(hydroxymethyl)-7-thia-2,5-diazatricyclo[6.4.0.0^2,6]dodeca-1(8),3,5-triene-4-carboxylic acid] was tested, and the IC50 was 0.5 µM. `O=C(O)[C@H]1CN2C(=N1)Sc1c2ccc(F)c1Cl` (single isomer, unassigned) [Example 237] was tested, and the IC50 was 0.68 µM. For `CS(=O)(=O)N1CC(c2c(C(=O)O)nc3sc4c(Cl)c(F)ccc4n23)C1` [Example 293, 9-Chloro-10-fluoro-3-(1-methanesulfonylazetidin-3-yl)-7-thia-2,5-diazatricyclo[6.4.0.0^2,6]dodeca-1(8),3,5,9,11-pentaene-4-carboxylic acid], the IC50 was 0.5 µM. `O=C(O)C1(CO)CN2C(=N1)Sc1c2ccc(F)c1Cl` (stereo not shown) [Example 263, 9-Chloro-10-fluoro-4-(hydroxymethyl)-7-thia-2,5-diazatricyclo[6.4.0.0^2,6]dodeca-1(8),5,9,11-tetraene-4-carboxylic acid] was tested, and the IC50 was 1.06 µM. For `O=C(O)c1cn2c(n1)sc1c(Cl)cc(Cl)cc12` [Example 204, 9,11-Dichloro-7-thia-2,5-diazatricyclo[6.4.0.0^2,6]dodeca-1(8),3,5,9,11-pentaene-4-carboxylic acid], the IC50 was 0.94 µM. Compound `CC1(C)CCc2c(sc3nc(C(=O)O)cn23)C1` [Example 33, 10,10-Dimethyl-7-thia-2,5-diazatricyclo[6.4.0.0^2,6]dodeca-1(8),3,5-triene-4-carboxylic acid] has an IC50 of 0.83 µM. For `O=C(O)c1cn2c(n1)sc1c(Cl)c(Cl)ccc12` [Example 1, 9,10-Dichloro-7-thia-2,5-diazatricyclo[6.4.0.0^2,6]dodeca-1(8),3,5,9,11-pentaene-4-carboxylic acid], the IC50 was 0.13 µM. For `CC1(C)Cc2c(sc3nc(C(=O)O)c(N4CCOCC4)n23)C(C)(C)C1` [Example 233, 9,9,11,11-Tetramethyl-3-(morpholin-4-yl)-7-thia-2,5-diazatricyclo[6.4.0.0^2,6]dodeca-1(8),3,5-triene-4-carboxylic acid], the IC50 was 0.43 µM. In the case of `CN1CCN(Cc2c(C(=O)O)nc3sc4c(n23)CCC(C(C)(C)C)C4)CC1` (stereo not shown) [Example 273, 10-tert-Butyl-3-[(4-methylpiperazin-1-yl)methyl]-7-thia-2,5-diazatricyclo[6.4.0.0^2,6]dodeca-1(8),3,5-triene-4-carboxylic acid], the IC50 is reported as 1.49 µM. `O=C(O)c1nc2sc3c(Cl)c(F)ccc3n2c1N1CCOCC1` [Example 238, 9-Chloro-10-fluoro-3-(morpholin-4-yl)-7-thia-2,5-diazatricyclo[6.4.0.0^2,6]dodeca-1(8),3,5,9,11-pentaene-4-carboxylic acid] showed an IC50 of 0.2 µM. For `O=C(O)c1nc2sc3c(Cl)c(F)ccc3n2c1NCCN1CCCC1` [Example 277, 9-Chloro-10-fluoro-3-{[2-(pyrrolidin-1-yl)ethyl]amino}-7-thia-2,5-diazatricyclo[6.4.0.0^2,6]dodeca-1(8),3,5,9,11-pentaene-4-carboxylic acid], the IC50 was 1.05 µM. With `O=C(O)c1cn2c(n1)sc1c(Cl)c(N3CC(F)(F)C3)ccc12` [Example 266, 9-Chloro-10-(3,3-difluoroazetidin-1-yl)-7-thia-2,5-diazatricyclo[6.4.0.0^2,6]dodeca-1(8),3,5,9,11-pentaene-4-carboxylic acid] the IC50 was 0.95 µM. In the case of `CSc1c(C(=O)O)nc2sc3c(n12)CC(C)(C)CC3(C)C` [Example 292, 9,9,11,11-Tetramethyl-3-(methylsulfanyl)-7-thia-2,5-diazatricyclo[6.4.0.0^2,6]dodeca-1(8),3,5-triene-4-carboxylic acid], the IC50 is reported as 0.29 µM. `O=C(O)[C@@H]1CN2C(=N1)Sc1c2ccc(F)c1Cl` (single isomer, unassigned) [Example 236] was tested, and the IC50 was 1.3 µM. With `O=C(O)c1cn2c3c(sc2n1)-c1ccccc1CC3` [Example 41, 16-Thia-11,14-diazatetracyclo[8.6.0.0^2,7.0^11,15]hexadeca-1 (10),2(7),3,5,12,14-hexaene-13-carboxylic acid] the IC50 was 0.36 µM. `CC(C)(C)C1CCc2c(sc3nc(C(=O)O)c(Br)n23)C1` (stereo not shown) [Example 253, 3-Bromo-10-tert-butyl-7-thia-2,5-diazatricyclo[6.4.0.0^2,6]dodeca-1(8),3,5-triene-4-carboxylic acid] was tested, and the IC50 was 1.68 µM. For `O=C(O)c1cn2c(n1)sc1c(Cl)cccc12` [Example 5, 9-Chloro-7-thia-2,5-diazatricyclo[6.4.0.0^2,6]dodeca-1(8),3,5,9,11-pentaene-4-carboxylic acid], the IC50 was 1.3 µM. In the case of `O=C(O)c1cn2c3c(sc2n1)CCCCC3` [Example 37, 7-Thia-2,5-diazatricyclo[6.5.0.0^2,6]trideca-1(8),3,5-triene-4-carboxylic acid], the IC50 is reported as 1.05 µM. For `O=C(O)c1cn2c(n1)sc1cc(Cl)c(OC(F)(F)F)cc12` [Example 230, 10-Chloro-11-(trifluoromethoxy)-7-thia-2,5-diazatricyclo[6.4.0.0^2,6]dodeca-1(8),3,5,9,11-pentaene-4-carboxylic acid], the IC50 was 0.98 µM. `CC1(C)Cc2c(sc3nc(C(=O)NS(C)(=O)=O)cn23)C(C)(C)C1` [Example 53, N-Methanesulfonyl-9,9,11,11-tetramethyl-7-thia-2,5-diazatricyclo[6.4.0.0^2,6]dodeca-1(8),3,5-triene-4-carboxamide] showed an IC50 of 0.48 µM. Compound `O=C(O)c1cn2c3c(sc2n1)C(O)CCC3` (stereo not shown) [Example 39, 9-Hydroxy-7-thia-2,5-diazatricyclo[6.4.0.0^2,6]dodeca-1(8),3,5-triene-4-carboxylic acid] has an IC50 of 2.98 µM. `O=C(O)C1CN2C(=N1)Sc1c2cc(OCCN2CCOCC2)c(Cl)c1Cl` (stereo not shown) [Example 285, 9,10-Dichloro-11-[2-(morpholin-4-yl)ethoxy]-7-thia-2,5-diazatricyclo[6.4.0.0^2,6]dodeca-1(8),5,9,11-tetraene-4-carboxylic acid] gave an IC50 of 1.27 µM.
